The results in this text go back to ChEMBL document CHEMBL2331176, “1,5-Diphenylpenta-2,4-dien-1-ones as potent and selective monoamine oxidase-B inhibitors” (Eur J Med Chem, 2013).

The target of data set [1] is T1, Amine oxidase [flavin-containing] A (Homo sapiens, UniProt P21397).
T1 sequence (P21397 whole entry): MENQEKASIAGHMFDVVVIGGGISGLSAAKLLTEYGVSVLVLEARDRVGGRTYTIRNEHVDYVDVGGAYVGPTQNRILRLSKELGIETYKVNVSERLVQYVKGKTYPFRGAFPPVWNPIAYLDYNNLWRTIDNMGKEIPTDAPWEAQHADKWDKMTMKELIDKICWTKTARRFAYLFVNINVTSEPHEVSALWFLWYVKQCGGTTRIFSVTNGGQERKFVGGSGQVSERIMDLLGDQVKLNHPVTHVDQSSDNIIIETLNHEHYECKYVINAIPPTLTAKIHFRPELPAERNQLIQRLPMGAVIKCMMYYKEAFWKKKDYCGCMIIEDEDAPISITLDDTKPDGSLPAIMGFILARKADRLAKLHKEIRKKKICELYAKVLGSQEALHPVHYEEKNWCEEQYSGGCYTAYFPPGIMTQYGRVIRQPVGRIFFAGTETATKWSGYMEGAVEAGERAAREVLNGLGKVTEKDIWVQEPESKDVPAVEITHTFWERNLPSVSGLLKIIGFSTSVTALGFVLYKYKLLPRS
Put plainly: Inhibition of recombinant human MAO-A expressed in baculovirus infected BT1-TN-5B1-4 cells assessed as inhibition of production of hydrogen peroxide from p-tyramine after 15 mins by Amplex Red assay.

For another data set, the species on record is Homo sapiens. Description: Selectivity index, ratio of IC50 for recombinant human MAO-A expressed in baculovirus infected BT1-TN-5B1-4 cells to recombinant human MAO-B expressed in baculovirus infected BT1-TN-5B1-4 cells.
In data set [2] the target is T2, Amine oxidase [flavin-containing] B (Homo sapiens, UniProt P27338).
T2 sequence (P27338 whole entry): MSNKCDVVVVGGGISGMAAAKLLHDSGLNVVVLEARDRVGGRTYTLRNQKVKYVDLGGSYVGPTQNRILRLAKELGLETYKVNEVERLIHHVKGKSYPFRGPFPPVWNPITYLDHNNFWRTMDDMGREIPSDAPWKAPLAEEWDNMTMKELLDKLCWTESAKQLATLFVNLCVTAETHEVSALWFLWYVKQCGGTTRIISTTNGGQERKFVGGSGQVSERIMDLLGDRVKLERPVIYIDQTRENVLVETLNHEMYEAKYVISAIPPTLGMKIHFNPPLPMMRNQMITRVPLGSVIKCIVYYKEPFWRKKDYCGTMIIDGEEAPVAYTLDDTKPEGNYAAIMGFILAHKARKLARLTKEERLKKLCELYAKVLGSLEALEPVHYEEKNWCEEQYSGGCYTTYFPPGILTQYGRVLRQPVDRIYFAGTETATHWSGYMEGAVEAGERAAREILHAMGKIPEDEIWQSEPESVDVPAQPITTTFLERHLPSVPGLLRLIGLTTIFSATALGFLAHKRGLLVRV
Description: biochemical. Type of data set: cell-based.
Description: Inhibition of recombinant human MAO-B expressed in baculovirus infected BT1-TN-5B1-4 cells assessed as inhibition of production of hydrogen peroxide from p-tyramine after 15 mins by Amplex Red assay

Data set [3] addresses T2, Amine oxidase [flavin-containing] B. Put plainly: Inhibition of recombinant human MAO-B expressed in baculovirus infected BT1-TN-5B1-4 cells assessed as inhibition of production of hydrogen peroxide from p-tyramine at 1 mM after 15 mins by Amplex Red assay. To be noted: 0.25 h, 1000 µM.
Data set [4] addresses T1, Amine oxidase [flavin-containing] A. Put plainly: Inhibition of recombinant human MAO-A expressed in baculovirus infected BT1-TN-5B1-4 cells assessed as inhibition of production of hydrogen peroxide from p-tyramine at 100 uM after 15 mins by Amplex Red assay. The settings on record: 0.25 h; for inhibition (INH): 100 µM.
The target of data set [5] is T2, Amine oxidase [flavin-containing] B. Put plainly: Inhibition of recombinant human MAO-B expressed in baculovirus infected BT1-TN-5B1-4 cells assessed as inhibition of production of hydrogen peroxide from p-tyramine at 100 uM after 15 mins by Amplex Red assay. To be noted: 0.25 h; for inhibition (INH): 100 µM.

By IC50 is commonly meant the point on the concentration scale where inhibition reaches its midpoint. Consider `COc1cc(/C=C/C=C/C(=O)c2c(O)cccc2O)ccc1O`, for which the IC50 in data set [1] is 1430 nM; in data set [2], 969 nM. The Ratio IC50 in the data set listed under Homo sapiens stood at 1.5.

`O=C(NCCN1CCOCC1)c1ccc(Cl)cc1` [MOCLOBEMIDE]: the “inhibition (INH)” value in data set [3] is recorded as “Not Active”.

Usually inhibition stands for the share of the control response that was lost under treatment. As for `COc1ccc(/C=C/C=C/C(=O)c2ccccc2O)cc1OC`, the Ratio IC50 in the data set listed under Homo sapiens was more than 6.8. The same molecule had a concentration for half-maximal inhibition (IC50) in data set [2] of 14600 nM. Besides, in data set [4], the inhibition at 100 µM came out at 40%.

`O=C(/C=C(O)/C=C/c1ccccc1)c1ccccc1O`: in the data set listed under Homo sapiens, the Ratio IC50 was more than 86. For the same molecule, the half-maximal inhibitory concentration (IC50) in data set [2] turned out to be 1160 nM. The “inhibition (INH)” value in data set [4] is reported as “Not Active”.

Take `O=C(/C=C/C=C/c1ccc([N+](=O)[O-])cc1)c1ccccc1O`: in the data set listed under Homo sapiens, the Ratio IC50 is more than 624. Also, the IC50 in data set [2] came to 160 nM. For the same molecule, the “inhibition (INH)” value in data set [4] was “Not Active”.

`O=C(/C=C(O)/C=C/c1ccc(O)c(O)c1)c1ccccc1O`: the results for the IC50 in data set [1] and in data set [2] were 431 nM and 654 nM, respectively. Also, in the data set filed under Homo sapiens, the Ratio IC50 came out at 0.66.

In the case of `Cc1ccc(/C=C/C(O)=C/C(=O)c2ccccc2O)cc1`, in the data set filed under Homo sapiens, the Ratio IC50 was more than 27. The molecule further registered a concentration for half-maximal inhibition (IC50) in data set [2] of 3770 nM. In data set [4], the “inhibition (INH)” value is listed as “Not Active”.

Turning to `COc1ccc(/C=C/C(O)=C/C(=O)c2c(O)cccc2OC)cc1OC`, the inhibition at 100 µM in data set [4] was found to be 40%. For the same molecule, the “inhibition (INH)” value in data set [5] was “Not Active”.

For `O=C(/C=C(O)/C=C/c1ccccc1)c1cc(F)ccc1O`, the Ratio IC50 in the data set filed under Homo sapiens is more than 1980. Further, the IC50 in data set [2] amounted to 50.4 nM. In addition, the “inhibition (INH)” value in data set [4] is “Not Active”.

As for `COc1ccc(/C=C/C=C/C(=O)c2ccccc2O)cc1`, the Ratio IC50 in the data set listed under Homo sapiens was more than 55. Also, inhibition in data set [2] was half-maximal at 1810 nM (IC50). In data set [4], the inhibition at 100 µM came out at 40%.

With `COc1ccc(/C=C/C=C/C(=O)c2cc(F)ccc2O)cc1`, the Ratio IC50 in the data set listed under Homo sapiens was more than 138. The same molecule yielded an IC50 in data set [2] of 726 nM. Besides, the “inhibition (INH)” value in data set [4] was “Not Active”.

Regarding `COc1ccc(/C=C/C(O)=C/C(=O)c2ccccc2O)cc1OC`, the “inhibition (INH)” value in data set [4] and in data set [5] was “Not Active” each time.

In the case of `COc1ccc(C(=O)/C=C/C=C/c2ccc(Cl)cc2)c(O)c1`, the Ratio IC50 in the data set filed under Homo sapiens was more than 22200. Also, inhibition in data set [2] was half-maximal at 4.51 nM (IC50). The “inhibition (INH)” value in data set [4] is recorded as “Not Active”.

As to `O=C(/C=C(O)/C=C/c1ccc([N+](=O)[O-])cc1)c1ccccc1O`, the Ratio IC50 in the data set listed under Homo sapiens was more than 37. The same molecule showed an IC50 in data set [2] of 2670 nM. Further, the “inhibition (INH)” value in data set [4] is reported as “Not Active”.

In the case of `O=C(/C=C/c1ccccc1)c1cc(F)ccc1O`, the Ratio IC50 in the data set filed under Homo sapiens was more than 150. Moreover, 668 nM corresponded to half-maximal inhibition in data set [2] (IC50). The inhibition at 100 µM in data set [4] was found to be 40%.

`O=C(/C=C/C=C/c1ccccc1)c1cc(Cl)ccc1O`: in the data set filed under Homo sapiens, the Ratio IC50 was more than 1830. In data set [2], this molecule displayed a half-inhibitory concentration (IC50) of 54.8 nM. In addition, the “inhibition (INH)” value in data set [4] is listed as “Not Active”.

For `COc1ccc(/C=C/C=C/C(=O)c2cc(Cl)ccc2O)cc1`, the Ratio IC50 in the data set listed under Homo sapiens is more than 653. This molecule also returned an IC50 in data set [2] of 153 nM. The “inhibition (INH)” value in data set [4] is “Not Active”.

As to `O=C(/C=C(O)/C=C/c1ccc(Cl)cc1)c1cc(Cl)ccc1O`, the “inhibition (INH)” value in data set [4] and in data set [5] was “Not Active” throughout.

`O=C(/C=C(O)/C=C/c1ccc(Cl)cc1)c1ccccc1O`: the “inhibition (INH)” value in data set [4] is “Not Active”. In data set [5], the inhibition at 100 µM stood at 40%.

Turning to `O=C(/C=C/C=C/c1ccccc1)c1cc(F)ccc1O`, the Ratio IC50 in the data set filed under Homo sapiens is more than 1320. Further, in data set [2], the IC50 amounted to 75.8 nM. For the same molecule, the “inhibition (INH)” value in data set [4] is reported as “Not Active”.

`O=C(/C=C/C=C/c1ccc(Cl)cc1)c1ccc(O)cc1O`: the 50% inhibitory concentration (IC50) in data set [1] is 15400 nM; in data set [2] it was 11.3 nM. The Ratio IC50 in the data set filed under Homo sapiens came out at 1350.

For the molecule `O=C(/C=C/C=C/c1ccc(Cl)cc1)c1cc(Cl)ccc1O`, in the data set filed under Homo sapiens, the Ratio IC50 was more than 68. Moreover, the IC50 in data set [2] worked out at 1460 nM. The “inhibition (INH)” value in data set [4] is “Not Active”.

On to `O=C(/C=C(O)/C=C/c1ccc(O)cc1)c1ccccc1O`, for which the concentration for half-maximal inhibition (IC50) in data set [1] was determined as 1520 nM; in data set [2], 26.5 nM. Besides, the Ratio IC50 in the data set filed under Homo sapiens came out at 57.

`COc1ccc(/C=C/C(O)=C/C(=O)c2ccccc2O)cc1`: the “inhibition (INH)” value in data set [4] is listed as “Not Active”. Moreover, the inhibition at 100 µM in data set [5] was 40%.

For the molecule `O=C(/C=C/C=C/c1ccc(Cl)cc1)c1ccccc1O`, the values for the half-inhibitory concentration (IC50) in data set [1] and in data set [2] were 37700 nM and 860 nM, respectively. The Ratio IC50 in the data set listed under Homo sapiens is 44.

On to `COc1cc(/C=C/C(O)=C/C(=O)c2c(O)cccc2OC)ccc1O`, for which the half-maximal inhibitory concentration (IC50) in data set [1] amounted to 3760 nM; in data set [2], 1680 nM. The Ratio IC50 in the data set filed under Homo sapiens came out at 2.2.

Take `COc1cc(/C=C/C=C/C(=O)c2ccccc2O)ccc1O`: the concentration for half-maximal inhibition (IC50) in data set [1] was found to be 1560 nM; in data set [2], 502 nM. Further, the Ratio IC50 in the data set listed under Homo sapiens came to 3.1.

Turning to `O=C(/C=C/C=C/c1ccccc1)c1ccccc1O`, the Ratio IC50 in the data set filed under Homo sapiens was more than 948. In data set [2], the IC50 is 106 nM. The “inhibition (INH)” value in data set [4] is given as “Not Active”.

For `O=C(/C=C/C=C/c1ccc([N+](=O)[O-])cc1)c1cc(Cl)ccc1O`, the Ratio IC50 in the data set filed under Homo sapiens was more than 93. In data set [2], this molecule showed a half-inhibitory concentration (IC50) of 1080 nM. Besides, the “inhibition (INH)” value in data set [4] is reported as “Not Active”.

Consider `COc1cc(/C=C/C=C/C(=O)c2c(O)cccc2OC)ccc1O`, for which the half-maximal inhibitory concentration (IC50) amounted to 1030 nM in data set [1] and 486 nM in data set [2]. Moreover, in the data set listed under Homo sapiens, the Ratio IC50 was found to be 2.1.

Turning to `COc1ccc(/C=C/C=C/C(=O)c2c(O)cccc2O)cc1OC`, the IC50 was 25200 nM in data set [1] and 1450 nM in data set [2]. In addition, the Ratio IC50 in the data set filed under Homo sapiens stood at 17.

As for `COc1ccc(/C=C/C=C/C(=O)c2c(O)cccc2OC)cc1OC`, in data set [4], the inhibition at 100 µM worked out at 40%. Also, the “inhibition (INH)” value in data set [5] is recorded as “Not Active”.
